Experimental data: US5430028A, “5-aminoquinolone carboxylic acid derivative and antibacterial agent containing the same as active ingredient” (SS Pharmaceutical Co., Ltd., priority 1992, dated 1995)
≈ marks a conversion by molar mass, not a printed value.

Tests used:
Test in all cases: Antibacterial test (MIC), The Japan Chemotherapeutic Association method
[1] = test system: Micrococcus lysodeikticus IFO 3333; assay type: cell-based; settings: Micrococcus luteus, IFO3333, Mueller Hinton Medium, 10^6 /ml, 37° C., determined after 24 hours
Method: (§1) Antibacterial activities against microorganisms shown in Tables 1-3 were measured according to the MIC measurement method of The Japan Chemotherapeutic Association. Sparfloxacin was used as a control agent.
(§2) Medium: Mueller Hinton Medium
(§3) A 1,000 micrograms/ml solution in 25% dimethylsulfoxide was prepared. A series of solutions with various concentrations (100 micrograms to 0.006 micrograms) were prepared by successively diluting the solution with sterilized water by a factor of 1/2.
(§4) Amount of inoculated bacteria: 10^6 /ml
(§5) Cultivation conditions: 37° C., 48 hours
(§6) Determination: After 24 hours.

[2] = test system: Serratia marcescens NHL; assay type: cell-based; settings: Mueller Hinton Medium, 10^6 /ml, 37° C., determined after 24 hours
Method: as §1, §2, §3, §4, §5, §6

[3] = test system: Staphylococcus aureus Smith; assay type: cell-based; settings: Mueller Hinton Medium, 10^6 /ml, 37° C., determined after 24 hours
Method: as §1, §2, §3, §4, §5, §6

[4] = test system: Pseudomonas aeruginosa P2; assay type: cell-based; settings: Mueller Hinton Medium, 10^6 /ml, 37° C., determined after 24 hours
Method: as §1, §2, §3, §4, §5, §6

[5] = test system: Shigella flexneri 2b; assay type: cell-based; settings: Mueller Hinton Medium, 10^6 /ml, 37° C., determined after 24 hours
Method: as §1, §2, §3, §4, §5, §6

[6] = test system: Escherichia coli K-12; assay type: cell-based; settings: K12, Mueller Hinton Medium, 10^6 /ml, 37° C., determined after 24 hours
Method: as §1, §2, §3, §4, §5, §6

[7] = test system: Salmonella typhi TD; assay type: cell-based; settings: Salmonella enterica, 24 h
Method: as §1, §2, §3, §4, §5, §6

[8] = test system: Sarcina lutea ATCC 9341; assay type: cell-based; settings: Micrococcus luteus, ATCC9341, Mueller Hinton Medium, 10^6 /ml, 37° C., determined after 24 hours
Method: as §1, §2, §3, §4, §5, §6

[9] = test system: Staphylococcus epidermidis ATCC 12228; assay type: cell-based; settings: ATCC12228, Mueller Hinton Medium, 10^6 /ml, 37° C., determined after 24 hours
Method: as §1, §2, §3, §4, §5, §6

[10] = test system: Proteus vulgaris OXK; assay type: cell-based; settings: Mueller Hinton Medium, 10^6 /ml, 37° C., determined after 24 hours
Method: as §1, §2, §3, §4, §5, §6

[11] = test system: Staphylococcus aureus Terashima; assay type: cell-based; settings: Mueller Hinton Medium, 10^6 /ml, 37° C., determined after 24 hours
Method: as §1, §2, §3, §4, §5, §6

[12] = test system: Staphylococcus aureus FDA 209P; assay type: cell-based; settings: FDA209P, Mueller Hinton Medium, 10^6 /ml, 37° C., determined after 24 hours
Method: as §1, §2, §3, §4, §5, §6

[13] = test system: Pseudomonas aeruginosa IFO 13736; assay type: cell-based; settings: IFO13736, Mueller Hinton Medium, 10^6 /ml, 37° C., determined after 24 hours
Method: as §1, §2, §3, §4, §5, §6

[14] = test system: Bacillus subtilis ATCC 6633; assay type: cell-based; settings: ATCC6633, Mueller Hinton Medium, 10^6 /ml, 37° C., determined after 24 hours
Method: as §1, §2, §3, §4, §5, §6

[15] = test system: Escherichia coli O-1; assay type: cell-based; settings: O1, Mueller Hinton Medium, 10^6 /ml, 37° C., determined after 24 hours
Method: as §1, §2, §3, §4, §5, §6

[16] = test system: Streptococcus faecalis IFO 12964; assay type: cell-based; settings: Enterococcus faecalis, IFO12964, Mueller Hinton Medium, 10^6 /ml, 37° C., determined after 24 hours
Method: as §1, §2, §3, §4, §5, §6

[17] = test system: Proteus rettgeri; assay type: cell-based; settings: Providencia rettgeri, Mueller Hinton Medium, 10^6 /ml, 37° C., determined after 24 hours
Method: as §1, §2, §3, §4, §5, §6

[18] = test system: Klebsiella pneumoniae IFO 13541; assay type: cell-based; settings: IFO13541, Mueller Hinton Medium, 10^6 /ml, 37° C., determined after 24 hours
Method: as §1, §2, §3, §4, §5, §6

[19] = test system: Pseudomonas aeruginosa IFO 12582; assay type: cell-based; settings: IFO12582, Mueller Hinton Medium, 10^6 /ml, 37° C., determined after 24 hours
Method: as §1, §2, §3, §4, §5, §6

[20] = test system: Klebsiella pneumoniae ATCC 10031; assay type: cell-based; settings: ATCC10031, Mueller Hinton Medium, 10^6 /ml, 37° C., determined after 24 hours
Method: as §1, §2, §3, §4, §5, §6

[21] = test system: M. R. Staphylococcus aureus 395; assay type: cell-based, Methicillin-resistant Staphylococcus aureus; settings: M. R. Staphylococcus aureus 395 (MRSA); Mueller Hinton Medium, 10^6 /ml, 37° C., determined after 24 hours
Method: as §1, §2, §3, §4, §5, §6

[22] = test system: M. R. Staphylococcus aureus 415; assay type: cell-based, Methicillin-resistant Staphylococcus aureus; settings: M. R. Staphylococcus aureus 415 (MRSA); Mueller Hinton Medium, 10^6 /ml, 37° C., determined after 24 hours
Method: as §1, §2, §3, §4, §5, §6

[23] = test system: M. R. Staphylococcus aureus 419; assay type: cell-based, Methicillin-resistant Staphylococcus aureus; settings: M. R. Staphylococcus aureus 419 (MRSA); Mueller Hinton Medium, 10^6 /ml, 37° C., determined after 24 hours
Method: as §1, §2, §3, §4, §5, §6

[24] = test system: M. R. Staphylococcus aureus 421; assay type: cell-based, Methicillin-resistant Staphylococcus aureus; settings: M. R. Staphylococcus aureus 421 (MRSA); Mueller Hinton Medium, 10^6 /ml, 37° C., determined after 24 hours
Method: as §1, §2, §3, §4, §5, §6

[25] = test system: M. R. Staphylococcus aureus 420; assay type: cell-based, Methicillin-resistant Staphylococcus aureus; settings: M. R. Staphylococcus aureus 420 (MRSA); Mueller Hinton Medium, 10^6 /ml, 37° C., determined after 24 hours
Method: as §1, §2, §3, §4, §5, §6

| SMILES | MIC [1] | MIC [2] | MIC [3] | MIC [4] | MIC [5] | MIC [6] | MIC [7] | MIC [8] | MIC [9] | MIC [10] | MIC [11] | MIC [12] | MIC [13] | MIC [14] | MIC [15] | MIC [16] | MIC [17] | MIC [18] | MIC [19] | MIC [20] | other results |
| --- | --- | --- | --- | --- | --- | --- | --- | --- | --- | --- | --- | --- | --- | --- | --- | --- | --- | --- | --- | --- | --- |
| CN1CCN(c2c(F)c(N)c3c(=O)c(C(=O)O)cn(C4CC4)c3c2F)CCC1=O [1-8, 5-Amino-1-cyclopropyl-6,8-difluoro-7-(4-methyl-2,3,4,5,6,7-hexahydro-1H-1,4-diazepin-5-on-1-yl)-1,4-dihydro-4-oxoquinoline-3-carboxylic acid] | 0.1 µg/mL (≈ 0.246 µM) | 1.56 µg/mL (≈ 3.84 µM) | 0.012 µg/mL (≈ 0.0295 µM) | 12.5 µg/mL (≈ 30.8 µM) | 0.006 µg/mL (≈ 0.0148 µM) | 0.1 µg/mL (≈ 0.246 µM) | 0.1 µg/mL (≈ 0.246 µM) | 0.39 µg/mL (≈ 0.96 µM) | 0.1 µg/mL (≈ 0.246 µM) | 0.1 µg/mL (≈ 0.246 µM) | 0.05 µg/mL (≈ 0.123 µM) | 0.006 µg/mL (≈ 0.0148 µM) | 3.13 µg/mL (≈ 7.7 µM) | 0.006 µg/mL (≈ 0.0148 µM) | 0.1 µg/mL (≈ 0.246 µM) | 0.2 µg/mL (≈ 0.492 µM) | 0.39 µg/mL (≈ 0.96 µM) | 0.1 µg/mL (≈ 0.246 µM) | 6.25 µg/mL (≈ 15.4 µM) | 0.006 µg/mL (≈ 0.0148 µM) | MIC [21]: 0.05 µg/mL (≈ 0.123 µM); MIC [22]: 0.024 µg/mL (≈ 0.0591 µM); MIC [23]: 0.024 µg/mL (≈ 0.0591 µM); MIC [24]: 0.024 µg/mL (≈ 0.0591 µM); MIC [25]: 0.05 µg/mL (≈ 0.123 µM) |
| C[C@@H]1CN(c2c(F)c(N)c3c(=O)c(C(=O)O)cn(C4CC4)c3c2F)C[C@H](C)N1 [Spafloxacin, reference compound] | 0.39 µg/mL (≈ 0.994 µM) | 0.2 µg/mL (≈ 0.51 µM) | 0.05 µg/mL (≈ 0.127 µM) | 1.56 µg/mL (≈ 3.98 µM) | 0.006 µg/mL (≈ 0.0153 µM) | 0.012 µg/mL (≈ 0.0306 µM) | 0.006 µg/mL (≈ 0.0153 µM) | 1.56 µg/mL (≈ 3.98 µM) | 0.2 µg/mL (≈ 0.51 µM) | 0.05 µg/mL (≈ 0.127 µM) | 0.1 µg/mL (≈ 0.255 µM) | 0.024 µg/mL (≈ 0.0612 µM) | 0.78 µg/mL (≈ 1.99 µM) | 0.024 µg/mL (≈ 0.0612 µM) | 0.012 µg/mL (≈ 0.0306 µM) | 0.39 µg/mL (≈ 0.994 µM) | 0.1 µg/mL (≈ 0.255 µM) | 0.012 µg/mL (≈ 0.0306 µM) | 1.56 µg/mL (≈ 3.98 µM) | 0.006 µg/mL (≈ 0.0153 µM) | MIC [21]: 0.1 µg/mL (≈ 0.255 µM); MIC [22]: 0.05 µg/mL (≈ 0.127 µM); MIC [23]: 0.05 µg/mL (≈ 0.127 µM); MIC [24]: 0.05 µg/mL (≈ 0.127 µM); MIC [25]: 0.1 µg/mL (≈ 0.255 µM) |
| Nc1c(F)c(N2CCNC(=O)CC2)c(Cl)c2c1c(=O)c(C(=O)O)cn2C1CC1 [1-10, 5-Amino-8-chloro-1-cyclopropyl-6-fluoro-7-(2,3,4,5,6,7-hexahydro-1H-1,4-diazepin-5-on-1-yl)-4-oxo-quinoline-3-carboxylic acid] | 0.05 µg/mL (≈ 0.122 µM) | 1.56 µg/mL (≈ 3.82 µM) | 0.006 µg/mL (≈ 0.0147 µM) | 12.5 µg/mL (≈ 30.6 µM) | 0.006 µg/mL (≈ 0.0147 µM) | 0.1 µg/mL (≈ 0.245 µM) | 0.1 µg/mL (≈ 0.245 µM) | 0.2 µg/mL (≈ 0.489 µM) | 0.024 µg/mL (≈ 0.0587 µM) | 0.2 µg/mL (≈ 0.489 µM) | 0.1 µg/mL (≈ 0.245 µM) | 0.012 µg/mL (≈ 0.0294 µM) | 6.25 µg/mL (≈ 15.3 µM) | 0.012 µg/mL (≈ 0.0294 µM) | 0.1 µg/mL (≈ 0.245 µM) | 0.2 µg/mL (≈ 0.489 µM) | 0.78 µg/mL (≈ 1.91 µM) | 0.1 µg/mL (≈ 0.245 µM) | 3.13 µg/mL (≈ 7.66 µM) | 0.05 µg/mL (≈ 0.122 µM) | MIC [21]: 0.024 µg/mL (≈ 0.0587 µM); MIC [22]: 0.012 µg/mL (≈ 0.0294 µM); MIC [23]: 0.024 µg/mL (≈ 0.0587 µM); MIC [24]: 0.024 µg/mL (≈ 0.0587 µM); MIC [25]: 0.012 µg/mL (≈ 0.0294 µM) |
| Nc1c(F)c(N2CCNC(=O)CC2)c(F)c2c1c(=O)c(C(=O)O)cn2C1CC1 [Compound No. 1-2, 5-Amino-1-cyclopropyl-6,8-difluoro-7-(2,3,4,5,6,7-hexahydro-1H-1,4-diazepin-5-on-1-yl)-1,4-dihydro-4-oxo-quinoline-3-carboxylic acid] | 0.05 µg/mL (≈ 0.127 µM) | 0.78 µg/mL (≈ 1.99 µM) | 0.006 µg/mL (≈ 0.0153 µM) | 6.25 µg/mL (≈ 15.9 µM) | 0.006 µg/mL (≈ 0.0153 µM) | 0.05 µg/mL (≈ 0.127 µM) | 0.05 µg/mL (≈ 0.127 µM) | 0.39 µg/mL (≈ 0.994 µM) | 0.05 µg/mL (≈ 0.127 µM) | 0.05 µg/mL (≈ 0.127 µM) | 0.05 µg/mL (≈ 0.127 µM) | 0.012 µg/mL (≈ 0.0306 µM) | 3.13 µg/mL (≈ 7.98 µM) | 0.006 µg/mL (≈ 0.0153 µM) | 0.05 µg/mL (≈ 0.127 µM) | 0.2 µg/mL (≈ 0.51 µM) | 0.39 µg/mL (≈ 0.994 µM) | 0.05 µg/mL (≈ 0.127 µM) | 3.13 µg/mL (≈ 7.98 µM) | 0.006 µg/mL (≈ 0.0153 µM) | MIC [21]: 0.05 µg/mL (≈ 0.127 µM); MIC [22]: 0.024 µg/mL (≈ 0.0612 µM); MIC [23]: 0.024 µg/mL (≈ 0.0612 µM); MIC [24]: 0.012 µg/mL (≈ 0.0306 µM); MIC [25]: 0.05 µg/mL (≈ 0.127 µM) |
